In article PMC9783573, “Introduction of a SiFA Moiety into the D-Glutamate Chain of DOTA-PP-F11N Results in Radiohybrid-Based CCK-2R-Targeted Compounds with Improved Pharmacokinetics In Vivo” (Pharmaceuticals, 2022):
Read-outs that look alike come from different tables or passages of the source. Non-standard residues stand in square brackets, D forms with d. Residues, ends and D or L forms follow the SMILES beside them. *: point of attachment. X1 = O=C(O)CN1CCN(CC(=O)O)CCN([C@H](CCC(=O)*)C(=O)O)CCN(CC(=O)O)CC1; Benzoyl(4-SiFtBu2) = CC(C)(C)[Si](F)(c1ccc(C(=O)*)cc1)C(C)(C)C; Nle = CCCC[C@H](N)C(=O)O; dDap = NC[C@@H](N)C(=O)O

Experiment: Biodistribution at 24 h p.i. in AR42J tumour-bearing CB17-SCID mice
Format: in vivo
Settings: mouse, in vivo, 100 pmol, n = 4, mean ± SD
Experimental: Figure 4 Biodistribution of the reference compound, [^177Lu]Lu-DOTA-PP-F11N (blue), the α-linked [^177Lu]Lu-(R)-DOTAGA-rhCCK-9 (red) and the γ-linked [^177Lu]Lu-(R)-DOTAGA-rhCCK-16 (green) in selected organs (%ID/g) at 24 h p.i. in AR42J tumour-bearing CB17-SCID mice (100 pmol each, n = 4). Data is expressed as mean ± SD.
All animal experiments were conducted in accordance with general animal welfare regulations in Germany (German animal protection act, in the edition of the announcement, dated 18 May 2006, as amended by Article 280 of 19 June 2020, approval no. ROB-55.2-1-2532.Vet_02-18-109 by the General Administration of Upper Bavaria) and the institutional guidelines for the care and use of animals. CB17-SCID mice of both genders and aged 2–12 months (Charles River Laboratories International Inc., Sulzfeld, Germany) were allowed to acclimate at the in-house animal facility for at least one week prior to tumour cell inoculation was performed. Tumour xenografts were generated using AR42J cells (5.0 × 10^6 cells per 200 µL) suspended in a 1/1 mixture (v/v) of RPMI 1640 medium and Cultrex® Basement Membrane Matrix Type 3 (Trevigen, Gaithersburg, MD, USA). This suspension was inoculated subcutaneously onto the right shoulder and animals were used when tumour volume was >100 mm^3 (1–2 week after inoculation). Exclusion criteria for animals from an experiment were either weight loss higher than 20%, a tumour size above 1500 mm^3, an ulceration of the tumour, respiratory distress or a change of behaviour. None of these criteria applied to any animal from the experiment. Neither randomisation nor blinding was applied in the allocation of the experiments. Health status is SPF according to FELASA.
For biodistribution studies, the ^177Lu-labelled compound (approx. 2–3 MBq, 100 pmol) was injected into a lateral tail vein (n = 4) of anesthetised (2% isoflurane) AR42J tumour-bearing CB-17-SCID mice. At 24 h post-injection (p.i.), the mice were euthanised. Thereafter, the pertinent organs were removed, weighed and measured using a γ-counter.

[1] = AR42J tumour, read-out: Biodistribution, Tumour
[2] = read-out: Biodistribution, Adrenal
[3] = read-out: Biodistribution, Blood
[4] = read-out: Biodistribution, Bone
[5] = read-out: Biodistribution, Heart
[6] = read-out: Biodistribution, Intestine
[7] = read-out: Biodistribution, Kidney
[8] = read-out: Biodistribution, Liver
[9] = read-out: Biodistribution, Lung
[10] = read-out: Biodistribution, Muscle
[11] = read-out: Biodistribution, Pancreas
[12] = read-out: Biodistribution, Spleen
[13] = read-out: Biodistribution, Stomach

SMILES: CCCC[C@H](NC(=O)[C@H](Cc1c[nH]c2ccccc12)NC(=O)CNC(=O)[C@H](Cc1ccc(O)cc1)NC(=O)[C@H](C)NC(=O)[C@@H](CCC(=O)O)NC(=O)[C@@H](CCC(=O)O)NC(=O)[C@@H](CCC(=O)O)NC(=O)[C@@H](CCC(=O)O)NC(=O)[C@@H](CCC(=O)O)NC(=O)[C@@H](CCC(=O)O)NC(=O)[C@@H](CCC(=O)O)NC(=O)[C@@H](CCC(=O)O)NC(=O)[C@@H](CNC(=O)c1ccc([Si](F)(C(C)(C)C)C(C)(C)C)cc1)NC(=O)CC[C@H](C(=O)O)N1CCN(CC(=O)O)CCN(CC(=O)O)CCN(CC(=O)O)CC1)C(=O)N[C@@H](CC(=O)O)C(=O)N[C@@H](Cc1ccccc1)C(N)=O [[nat/177Lu]Lu-(R)-DOTAGA-rhCCK-9, metal not drawn] (X1-[dDap](Benzoyl(4-SiFtBu2))[dE][dE][dE][dE][dE][dE][dE][dE]AYGW[Nle]DF-NH2)
- tissue uptake at 24 h [1]: 6.4 ± 1.48 %ID/g
- tissue uptake at 24 h [2]: 0.45 ± 0.3 %ID/g
- tissue uptake at 24 h [3]: 0.02 %ID/g
- tissue uptake at 24 h [4]: 0.82 ± 0.42 %ID/g
- tissue uptake at 24 h [5]: 0.09 ± 0.03 %ID/g
- tissue uptake at 24 h [6]: 0.26 ± 0.04 %ID/g
- tissue uptake at 24 h [7]: 84.4 ± 22.7 %ID/g
- tissue uptake at 24 h [8]: 1.07 ± 0.54 %ID/g
- tissue uptake at 24 h [9]: 0.1 ± 0.05 %ID/g
- tissue uptake at 24 h [10]: 0.03 ± 0.01 %ID/g
- tissue uptake at 24 h [11]: 0.31 ± 0.2 %ID/g
- tissue uptake at 24 h [12]: 0.7 ± 0.69 %ID/g
- tissue uptake at 24 h [13]: 1.8 ± 0.37 %ID/g

SMILES: CCCC[C@H](NC(=O)[C@H](Cc1c[nH]c2ccccc12)NC(=O)CNC(=O)[C@H](Cc1ccc(O)cc1)NC(=O)[C@H](C)NC(=O)[C@@H](CCC(=O)O)NC(=O)[C@@H](CCC(=O)O)NC(=O)[C@@H](CCC(=O)O)NC(=O)[C@@H](CCC(=O)O)NC(=O)[C@@H](CCC(=O)O)NC(=O)[C@@H](CCC(=O)O)NC(=O)CN1CCN(CC(=O)O)CCN(CC(=O)O)CCN(CC(=O)O)CC1)C(=O)N[C@@H](CC(=O)O)C(=O)N[C@@H](Cc1ccccc1)C(N)=O [[nat/177Lu]Lu-DOTA-PP-F11N, metal not drawn, reference compound]
- tissue uptake at 24 h [1]: 1.88 ± 0.82 %ID/g
- tissue uptake at 24 h [2]: 0.03 ± 0.03 %ID/g
- tissue uptake at 24 h [4]: 0.03 ± 0.01 %ID/g
- tissue uptake at 24 h [6]: 0.04 ± 0.02 %ID/g
- tissue uptake at 24 h [7]: 3.08 ± 0.51 %ID/g
- tissue uptake at 24 h [8]: 0.67 ± 0.64 %ID/g
- tissue uptake at 24 h [11]: 0.05 ± 0.01 %ID/g
- tissue uptake at 24 h [12]: 0.07 ± 0.03 %ID/g
- tissue uptake at 24 h [13]: 0.36 ± 0.05 %ID/g

SMILES: CCCC[C@H](NC(=O)[C@H](Cc1c[nH]c2ccccc12)NC(=O)CNC(=O)[C@H](Cc1ccc(O)cc1)NC(=O)[C@H](C)NC(=O)CC[C@@H](NC(=O)CC[C@@H](NC(=O)CC[C@@H](NC(=O)CC[C@@H](NC(=O)CC[C@@H](NC(=O)CC[C@@H](NC(=O)[C@@H](CNC(=O)c1ccc([Si](F)(C(C)(C)C)C(C)(C)C)cc1)NC(=O)CC[C@H](C(=O)O)N1CCN(CC(=O)O)CCN(CC(=O)O)CCN(CC(=O)O)CC1)C(=O)O)C(=O)O)C(=O)O)C(=O)O)C(=O)O)C(=O)O)C(=O)N[C@@H](CC(=O)O)C(=O)N[C@@H](Cc1ccccc1)C(N)=O [[nat/177Lu]Lu-(R)-DOTAGA-rhCCK-16, metal not drawn]
- tissue uptake at 24 h [1]: 15.7 ± 3.3 %ID/g
- tissue uptake at 24 h [2]: 1.49 ± 1.5 %ID/g
- tissue uptake at 24 h [3]: 0.01 %ID/g
- tissue uptake at 24 h [4]: 0.17 ± 0.02 %ID/g
- tissue uptake at 24 h [5]: 0.11 ± 0.01 %ID/g
- tissue uptake at 24 h [6]: 0.2 ± 0.04 %ID/g
- tissue uptake at 24 h [7]: 85.5 ± 11.3 %ID/g
- tissue uptake at 24 h [8]: 1.18 ± 0.27 %ID/g
- tissue uptake at 24 h [9]: 0.09 ± 0.02 %ID/g
- tissue uptake at 24 h [10]: 0.05 ± 0.01 %ID/g
- tissue uptake at 24 h [11]: 0.39 ± 0.12 %ID/g
- tissue uptake at 24 h [12]: 0.62 ± 0.03 %ID/g
- tissue uptake at 24 h [13]: 3.51 ± 0.5 %ID/g
